Experimental data as given in patent publication US20250163074A1, “CDK Inhibitors And Their Use As Pharmaceuticals” (Prelude Therapeutics Incorporated, priority 2020, published 2025).
Where two headings read alike, the source gives them in different places.

What was measured:
[1] = biological target: CDK6/Cyclin D1 (Homo sapiens (Human), UniProt Q00534); experiment: CDK6/CyclinD1 enzymatic activity assay (TR-FRET); assay type: biochemical; details: CDK6/Cyclin D1 1 nM, ATP 250 μM, read-out: CDK6_D1 IC50
Sequence of CDK6/Cyclin D1 (Q00534 whole entry): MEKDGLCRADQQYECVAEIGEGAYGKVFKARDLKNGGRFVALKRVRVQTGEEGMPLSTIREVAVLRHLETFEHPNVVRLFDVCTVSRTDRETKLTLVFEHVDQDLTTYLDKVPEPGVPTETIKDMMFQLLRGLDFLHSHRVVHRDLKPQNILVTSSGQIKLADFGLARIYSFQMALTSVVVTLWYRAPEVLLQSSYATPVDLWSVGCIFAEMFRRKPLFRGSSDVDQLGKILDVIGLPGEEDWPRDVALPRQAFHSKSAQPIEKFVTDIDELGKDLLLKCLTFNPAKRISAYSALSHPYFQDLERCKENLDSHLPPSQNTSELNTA
Sequence of CDK6/Cyclin D1 (P24385 whole entry partner): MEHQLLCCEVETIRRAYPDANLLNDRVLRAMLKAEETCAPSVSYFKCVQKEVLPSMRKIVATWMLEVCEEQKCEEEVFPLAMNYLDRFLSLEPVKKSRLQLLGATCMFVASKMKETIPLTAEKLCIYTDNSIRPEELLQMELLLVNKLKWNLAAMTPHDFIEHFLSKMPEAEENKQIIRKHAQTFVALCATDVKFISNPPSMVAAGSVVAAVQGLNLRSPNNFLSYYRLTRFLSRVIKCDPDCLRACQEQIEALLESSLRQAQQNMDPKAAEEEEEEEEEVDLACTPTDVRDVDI
Procedure, shortened: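 Insect-cell-expressed CDK6/Cyclin D1 (1 nM) phosphorylated ULight-4E-BP1 (100 nM) with 250 μM ATP in HEPES pH 7.4 buffer. After 20 min compound preincubation, reactions were started with 10 mM MgCl2 and run 60 min at 37 °C. EDTA-quenched samples were read by TR-FRET with Eu-anti-P-4E-BP1; IC50 from 9-dose 4-parameter fits.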

[2] = test system: MCF7 adenocarcinoma cell line; experiment: Cell proliferation studies in MCF7 cells (ATP-Lite); assay type: cell-based; details: 10 days incubation, cell viability by ATP-Lite luminescence, read-out: PROLIFERATION_CTG_MCF7 IC50
Procedure, shortened: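 MCF7 cells, seeded at 100 or 200 cells/well, were exposed for 10 days at 37 °C to a 9-point, 3-fold dilution series in quadruplicate, with media exchange and re-dosing on day 5. Viability was read by ATP-Lite luminescence, normalized to background and DMSO, and fitted for IC50.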

[3] = biological target: CDK4/Cyclin D1 (Homo sapiens (Human), UniProt P11802); experiment: CDK4/CyclinD1 enzymatic activity assay (TR-FRET); assay type: biochemical; details: CDK4/CyclinD1 1 nM, ATP 2 mM, read-out: CDK4_D1 IC50
Sequence of CDK4/Cyclin D1 (P11802 whole entry): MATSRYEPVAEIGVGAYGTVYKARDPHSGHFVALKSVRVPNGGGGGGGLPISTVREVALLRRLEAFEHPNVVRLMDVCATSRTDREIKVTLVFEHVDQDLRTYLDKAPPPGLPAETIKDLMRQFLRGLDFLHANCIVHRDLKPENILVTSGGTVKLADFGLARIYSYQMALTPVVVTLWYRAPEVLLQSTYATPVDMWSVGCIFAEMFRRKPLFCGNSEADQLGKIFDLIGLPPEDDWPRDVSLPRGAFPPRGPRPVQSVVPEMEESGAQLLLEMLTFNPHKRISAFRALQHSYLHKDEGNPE
Sequence of CDK4/Cyclin D1 (P24385 whole entry partner): as the sequence (P24385 whole entry partner) above
Procedure, shortened: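 Insect-cell CDK4/Cyclin D1 (1 nM) with ULight-4E-BP1 (100 nM) and 2 mM ATP in HEPES pH 7.4 buffer, preincubated 20 min with compound (9-dose, 3-fold dilutions); 10 mM MgCl2 started the reaction, run 60 min at 37 °C. EDTA/Eu-anti-phospho-4E-BP1 TR-FRET detection; IC50 from 4-parameter Hill fit.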

[4] = Brain-to-plasma ratio determination in Sprague-Dawley rats; assay type: in vivo; details: male Sprague-Dawley rats, four hours after a single oral dose (3, 4, 5, or 10 mg/kg); for Kp at 4 h: rat
Experimental: Example B: Brain-to-Plasma Ratio Determination in Sprague-Dawley Rats
The brain-to-plasma ratio (Kp) was determined in male Sprague-Dawley rats (7-9 weeks old) four hours after a single oral dose. Rats were acclimated and given free access to standard rodent chow and water throughout the entire study. Test articles were formulated as a solution at 0.3, 0.4, 0.5, or 1.0 mg/mL in a vehicle comprised of 10:15:75 (v:v:v) dimethylacetamide (DMA):Solutol HS15:water and delivered orally at a rate of 10 mL/kg to three rats to achieve final doses of 3, 4, 5, or 10 mg/kg, respectively. At 4 hours post-dose, blood samples were collected via jugular vein cannula into tubes containing K2EDTA as the anticoagulant and stored on ice. Blood samples were then centrifuged at 4° C. at 6000 rpm for 5 minutes, and the resulting plasma was placed into tubes and stored frozen at −80° C. until analysis. Whole brain samples were also collected at 4 hours post-dose. The weight of each brain was measured and recorded, and samples were immediately stored on dry ice. Brain samples were then transferred to storage at −80° C. until analysis.
Prior to analysis, brain samples were combined with water (4 mL/1 gram of brain) and homogenized. Prior to injection, plasma and brain homogenate samples and standards were prepared for analysis by precipitation with acetonitrile or 1:1 (v:v) methanol:acetonitrile. Samples were then thoroughly mixed, centrifuged at 4000 rpm for 15 minutes, and the resulting supernatant was transferred for analysis. Test article concentrations in plasma and brain homogenate were then determined by LC-MS/MS and quantified against calibration standards prepared to known concentrations in matched blank (analyte-free) biological matrix. The Kp was then determined by dividing the dilution-corrected brain concentration by the plasma concentration from each rat. A brain density of 1 gram/mL was assumed for all calculations.

SMILES | IC50 [1] [nM] | IC50 ([2]; Homo sapiens, 240 h) [nM] | IC50 [3] [nM] | Kp at 4 h [4] | IC50 [2] [nM] | Kp [4]
Cc1c(-c2nc(Nc3ccc(C4CCN(C(C)C)C4)cn3)ncc2F)sc2c1C(=O)N(C)C21CC1 (centres unmarked) [Example 16, 2′-(5-Fluoro-2-((5-(1-isopropylpyrrolidin-3-yl)pyridin-2-yl)amino)pyrimidin-4-yl)-3′,5′-dimethylspiro[cyclopropane-1,6′-thieno[2,3-c]pyrrol]-4′(5′H)-one] | ≤ 20 | 20 to 200 | ≤ 20 | < 1 |  | 
CN1CCC(c2ccc(Nc3ncc(F)c(-c4cc5c(s4)C4(CCCC4)N(C)C5=O)n3)nc2)CC1 [Example 20, 2′-(5-Fluoro-2-((5-(1-methylpiperidin-4-yl)pyridin-2-yl)amino)pyrimidin-4-yl)-5′-methylspiro[cyclopentane-1,6′-thieno[2,3-c]pyrrol]-4′(5′H)-one] | ≤ 20 | ≤ 20 | ≤ 20 | ≥ 3 |  | 
CCN1CC2(C1)CN(c1ccc(Nc3ncc(F)c(-c4cc5c(s4)C4(CCCC4)N(C)C5=O)n3)nc1)C2 [Example 24] | ≤ 20 |  | ≤ 20 |  | 20 to 200 | ++ (a “++” denotes 1.0 ≤ Kp < 3.0)
Cc1c(-c2nc(Nc3ccc(C4CCN(C)CC4)cn3)ncc2F)sc2c1C(=O)N(C)C21CCCC1 [Example 25, 2′-(5-Fluoro-2-((5-(1-methylpiperidin-4-yl)pyridin-2-yl)amino)pyrimidin-4-yl)-3′,5′-dimethylspiro[cyclopentane-1,6′-thieno[2,3-c]pyrrol]-4′(5′H)-one] | ≤ 20 | ≤ 20 | ≤ 20 | 1 to 3 |  | 
Cc1c(-c2nc(Nc3ccc(C4CCN(C)CC4)cn3)ncc2F)sc2c1C(=O)N(C)CC21CC1 [Example 28] | ≤ 20 | 20 to 200 | ≤ 20 | ≥ 3 |  | 
CN1CCC(c2ccc(Nc3ncc(F)c(-c4cc5c(s4)C4(CC4)CN(C)C5=O)n3)nc2)CC1 [Example 29, 2′-(5-Fluoro-2-((5-(1-methyl-piperidin-4-yl)pyridin-2-yl)amino)pyrimidin-4-yl)-5′-methyl-5′,6′-dihydro-4′H-spiro[cyclo-propane-1,7′-thieno[3,2-c]pyridin]-4′-one] | 20 to 200 | 20 to 200 | ≤ 20 | 1 to 3 |  | 
Cc1c(-c2nc(Nc3ccc(N4CC5(CCN(C)C5)C4)cn3)ncc2F)sc2c1C(=O)N(C)CC21CC1 [Example 35] | ≤ 20 | ≤ 20 | ≤ 20 | 1 to 3 |  | 
CCN1C[C@H]2CN(c3ccc(Nc4ncc(F)c(-c5sc6c(c5C)C(=O)N(C)CC65CC5)n4)nc3)C[C@@H]2C1 [Example 39, 2′-(2-((5-((3aS,6aS)-5-Ethylhexahydropyrrolo[3,4-c]pyrrol-2(1H)-yl)pyridin-2-yl)amino)-5-fluoropyrimidin-4-yl)-3′,5′-dimethyl-5′,6′-dihydro-4′H-spiro[cyclopropane-1,7′-thieno[3,2-c]pyridin]-4′-one] | ≤ 20 | 20 to 200 | ≤ 20 | 1 to 3 |  | 
CCN1CC2(C1)CN(c1ccc(Nc3ncc(C)c(-c4cc5c(s4)C4(CC4)CN(C)C5=O)n3)nc1)C2 [Example 41, 2-[2-[[5-(6-Ethyl-2,6-diazaspiro[3.3]heptan-2-yl)pyridin-2-yl]amino]-5-methylpyrimidin-4-yl]-5-methylspiro[6H-thieno[3,2-c]pyridine-7,1′-cyclopropane]-4-one] | ≤ 20 | ≤ 20 | ≤ 20 | < 1 |  | 

More lines, now with the values ahead:

IC50 [1] [nM] | IC50 ([2]; Homo sapiens, 240 h) [nM] | IC50 [3] [nM] | Kp at 4 h [4] | IC50 [2] [nM] | Kp [4] | SMILES
20 to 200 | 20 to 200 | ≤ 20 | 1 to 3 |  |  | CN1CCC(c2ccc(Nc3ncc(F)c(-c4cc5c(s4)C4(CCC4)CN(C)C5=O)n3)nc2)CC1 [Example 47, 2′-(5-Fluoro-2-((5-(1-methyl-piperidin-4-yl)pyridin-2-yl)amino)pyrimidin-4-yl)-5′-methyl-5′,6′-dihydro-4′H-spiro[cyclobutane-1,7′-thieno[3,2-c]pyridin]-4′-one]
≤ 20 | 20 to 200 | ≤ 20 | ≥ 3 |  |  | Cc1c(-c2nc(Nc3ccc(C4CCN(C)CC4)cn3)ncc2F)sc2c1C(=O)N(C)CC21CCC1 [Example 48, 2′-(5-Fluoro-2-((5-(1-methyl-piperidin-4-yl)pyridin-2-yl)amino)pyrimidin-4-yl)-3′,5′-dimethyl-5′,6′-dihydro-4′H-spiro[cyclobutane-1,7′-thieno[3,2-c]pyridin]-4′-one]
≤ 20 | 20 to 200 | ≤ 20 | ≥ 3 |  |  | CN1CCN(c2ccc(Nc3ncc(F)c(-c4cc5c(s4)C4(CCC4)CN(C)C5=O)n3)nc2)CC1 [Example 50, 2′-(5-Fluoro-2-((5-(4-methyl-piperazin-1-yl)pyridin-2-yl)amino)pyrimidin-4-yl)-5′-methyl-5′,6′-dihydro-4′H-spiro[cyclobutane-1,7′-thieno[3,2-c]pyridin]-4′-one]
≤ 20 | 20 to 200 | ≤ 20 | < 1 |  |  | Cc1c(-c2nc(Nc3ccc(N4CCC5(CCN(C)C5)C4)cn3)ncc2F)sc2c1C(=O)N(C)CC21CCC1 (centres unmarked) [Example 55, 2′-(5-Fluoro-2-((5-(7-methyl-2,7-diazaspiro[4.4]nonan-2-yl)pyridin-2-yl)amino)pyrimidin-4-yl)-3′,5′-dimethyl-5′,6′-dihydro-4′H-spiro[cyclobutane-1,7′-thieno[3,2-c]pyridin]-4′-one]
≤ 20 | ≤ 20 | ≤ 20 | 1 to 3 |  |  | Cc1cnc(Nc2ccc(C3CCN(C)CC3)cn2)nc1-c1cc2c(s1)C1(CCC1)CN(C)C2=O [Example 59, 5-Methyl-2-[5-methyl-2-[[5-(1-methylpiperidin-4-yl)pyridin-2-yl]amino]pyrimidin-4-yl]spiro[6H-thieno[3,2-c]pyridine-7,1′-cyclobutane]-4-one]
≤ 20 | 20 to 200 | ≤ 20 | ≥ 3 |  |  | Cc1c(-c2nc(Nc3ccc(C4CCN(C)CC4)cn3)ncc2F)sc2c1C(=O)N(C)CC21CCCC1 [Example 63, 2′-(5-Fluoro-2-((5-(1-methyl-piperidin-4-yl)pyridin-2-yl)amino)pyrimidin-4-yl)-3′,5′-dimethyl-5′,6′-dihydro-4′H-spiro[cyclopentane-1,7′-thieno[3,2-c]pyridin]-4′-one]
20 to 200 | 20 to 200 | ≤ 20 | 1 to 3 |  |  | CCN1CC2(C1)CN(c1ccc(Nc3ncc(F)c(-c4ccc5c(c4)C4(CCCC4)CN(C)C5=O)n3)nc1)C2 [Example 66, 6′-(2-((5-(6-Ethyl-2,6-diazaspiro[3.3]heptan-2-yl)pyridin-2-yl)amino)-5-fluoropyrimidin-4-yl)-2′-methyl-2′,3′-dihydro-1′H-spiro[cyclopentane-1,4′-isoquinolin]-1′-one]
20 to 200 | 20 to 200 | ≤ 20 | ≥ 3 |  |  | CN1CCC(c2ccc(Nc3ncc(F)c(-c4ccc5c(c4)C4(CCCC4)CN(C)C5=O)n3)nc2)CC1 [Example 67, 6′-(5-Fluoro-2-((5-(1-methyl-piperidin-4-yl)pyridin-2-yl)amino)pyrimidin-4-yl)-2′-methyl-2′,3′-dihydro-1′H-spiro[cyclopentane-1,4′-isoquinolin]-1′-one]
